Where two headings read alike, the source gives them in different places.
Experiments:
[1] = PK study in rats after single oral administration of Pogostemon cablin (PC) extract, plasma analysed by UPLC-MS/MS; details: for shape of plasma concentration-time curve: Figure 2; for detection in plasma after oral PC extract: no complete PK profile obtained
Procedure: (§1) The 100 μL plasma sample was combined with 20 μL of ME, 20 μL of IS (500 ng/mL), and 2.5 μL of FA, followed by vortexing for 1 min. This mixture underwent extraction with 600 μL ACN through vortexing at room temperature for 3 min. Subsequent to centrifugation at 14,000 rpm for a period of 10 min, the resulting supernatant was moved to another tube and dried under a stream of nitrogen. The dried residue was dissolved in 100 μL ME-ACN (50:50 v/v), followed by vortexing for 5 min, and subsequent centrifugation at 14,000 rpm for 10 min. Finally, 20 μL of the supernatant was used for analysis.
(§2) A concentration of 0.5 g/mL of PC extract was obtained by dissolving in 0.5% CMC-Na aqueous solution. The PC suspension of the 4.0 g/kg dose was given to rats by single oral administration. […] Subsequently, the plasma collected underwent centrifugation at a speed of 7000 rpm for a duration of 10 min. It was then moved to clean tubes and kept at a temperature of −80°C.
(§3) Data in this study was presented as the mean ± standard deviation (SD). The MassHunter Workstation software (version B.09.00, Agilent, United States) was utilized for determining the plasma levels of the 15 analytes. Additionally, PK parameters were analyzed using DAS 3.0 Software (Medical College of Wannan, China).

[2] = rat, in vivo, po, 4 g/kg
Procedure: as §1, §2, §3

[3] = rat plasma, PC extract 4.0 g/kg single oral dose, n = 6
[4] = rat plasma, PC extract 4.0 g/kg oral

Which AUC ([1]; male, rat, plasma, po, 4 g/kg) does the source give for `C[C@@H]1O[C@@H](O[C@@H]2[C@@H](O)[C@H](OCCc3ccc(O)c(O)c3)O[C@H](COC(=O)/C=C/c3ccc(O)c(O)c3)[C@H]2O)[C@H](O)[C@H](O)[C@H]1O` [Isoacteoside, isoacteoside] here?
The AUC was 384 ± 93.8 ng·h/mL.

And the AUC(0-inf) ([1]; male, rat, plasma, po, 4 g/kg)?
The AUC(0-inf) was 384 ± 93.8 ng·h/mL.

What about the Cmax ([1]; male, rat, plasma, po, 4 g/kg) of the same compound?
Its Cmax is 109 ± 41.5 ng/mL.

What about the Tmax ([1]; male, rat, plasma, po, 4 g/kg) of the same compound?
Its Tmax is 0.5 ± 0.3 h.

And the half-life ([1]; male, rat, plasma, po, 4 g/kg)?
The half-life was 2.9 ± 0.3 h.

For `O=c1cc(-c2ccc(O)cc2)oc2cc(O[C@@H]3O[C@H](CO)[C@@H](O)[C@H](O)[C@H]3O)cc(O)c12` [Cosmosiin, cosmosiin], which T1/2z [2] is on record?
The T1/2z was 3.7 ± 0.6 h.

Which results are given for `COc1cc(O)c2c(=O)c(OC)c(-c3ccc(O)c(OC)c3)oc2c1` [Pachypodol, pachypodol]?
AUC ([1]; male, rat, plasma, po, 4 g/kg): 243 ± 63.5 ng·h/mL; AUC(0-inf) ([1]; male, rat, plasma, po, 4 g/kg): 243 ± 63.5 ng·h/mL; Cmax ([1]; male, rat, plasma, po, 4 g/kg): 47.8 ± 15.9 ng/mL; Tmax ([1]; male, rat, plasma, po, 4 g/kg): 0.8 ± 0.2 h; half-life ([1]; male, rat, plasma, po, 4 g/kg): 2 ± 0.1 h; shape of plasma concentration-time curve ([1]; rat plasma, PC extract oral): double-peak phenomenon

Which AUC ([1]; male, rat, plasma, po, 4 g/kg) does the source give for `C[C@@H]1O[C@@H](O[C@@H]2[C@@H](O)[C@H](OCCc3ccc(O)c(O)c3)O[C@H](CO)[C@H]2OC(=O)/C=C/c2ccc(O)c(O)c2)[C@H](O)[C@H](O)[C@H]1O` [Verbascoside, verbascoside] here?
The AUC was 1700 ± 394 ng·h/mL.

And the AUC(0-inf) ([1]; male, rat, plasma, po, 4 g/kg)?
Its AUC(0-inf) is 1700 ± 394 ng·h/mL.

And the Cmax ([1]; male, rat, plasma, po, 4 g/kg)?
The Cmax was 554 ± 159 ng/mL.

And the Tmax ([1]; male, rat, plasma, po, 4 g/kg)?
Its Tmax is 0.4 ± 0.3 h.

And the half-life ([1]; male, rat, plasma, po, 4 g/kg)?
Its half-life is 2.6 ± 0.21 h.

Which AUC ([1]; male, rat, plasma, po, 4 g/kg) does the source give for `O=c1cc(-c2ccc(O)cc2)oc2cc(O)cc(O)c12` [Apigenin, apigenin] here?
Its AUC is 255 ± 65.5 ng·h/mL.

And the AUC(0-inf) ([1]; male, rat, plasma, po, 4 g/kg)?
The AUC(0-inf) was 255 ± 65.5 ng·h/mL.

And the Cmax ([1]; male, rat, plasma, po, 4 g/kg)?
Its Cmax is 64.2 ± 15.8 ng/mL.

And the Tmax ([1]; male, rat, plasma, po, 4 g/kg)?
The Tmax was 0.3 ± 0.2 h.

What about the half-life ([1]; male, rat, plasma, po, 4 g/kg) of the same compound?
The half-life was 2.7 ± 0.6 h.

And the “shape of plasma concentration-time curve” value ([1]; rat plasma, PC extract oral)?
The value was “double-peak phenomenon”.

Which results are given for `COc1cc(O)c2c(=O)c(O)c(-c3ccc(OC)c(O)c3)oc2c1` [Ombuin, ombuin]?
AUC (0-tn) [1, 3]: 95.1 ± 28.1 µg·h/L; AUC (0-∞) [1, 3]: 95.4 ± 28.4 ng·h/mL; Cmax [1, 3]: 11.2 ± 1.5 ng/mL; T1/2z [1, 3]: 3.8 ± 1.8 h; Tmax [1, 3]: 0.6 ± 0.2 h

Which results are given for `COc1cc(C(=O)O)ccc1O` [Vanillic acid, vanillic acid]?
AUC ([1]; male, rat, plasma, po, 4 g/kg): 1310 ng·h/mL; AUC(0-inf) ([1]; male, rat, plasma, po, 4 g/kg): 1310 ng·h/mL; Cmax ([1]; male, rat, plasma, po, 4 g/kg): 116 ± 36.8 ng/mL; Tmax ([1]; male, rat, plasma, po, 4 g/kg): 1.4 ± 1.4 h; half-life ([1]; male, rat, plasma, po, 4 g/kg): 2.5 ± 0.1 h

With `O=c1c(O[C@@H]2O[C@H](CO)[C@H](O)[C@H](O)[C@H]2O)c(-c2ccc(O)c(O)c2)oc2cc(O)cc(O)c12` [Hyperoside, hyperoside] as the compound, how does the “detection in plasma after oral PC extract” value (“detection in plasma” below) [1, 4] read?
Its value is “only detected in the initial plasma samples”.

For `O=c1cc(-c2ccc(O)cc2)oc2c([C@@H]3O[C@H](CO)[C@@H](O)[C@H](O)[C@H]3O)c(O)cc(O)c12` [Vitexin, vitexin], which “detection in plasma” value [1, 4] is on record?
Its value is “only detected in the initial plasma samples”.

For `O=c1cc(-c2ccc(O)cc2)oc2c([C@@H]3O[C@H](CO)[C@@H](O)[C@H](O)[C@H]3O)c(O)c([C@@H]3O[C@H](CO)[C@@H](O)[C@H](O)[C@H]3O)c(O)c12` [Vicenin-2, vicenin-2], which “AUC (0-tn)” value [1, 3] is on record?
Its value is 968.0 ± 131.9 µg·h/L.

And the “AUC (0-∞)” value [1, 3]?
The value was 968.8 ± 132.9 ng·h/mL.

What about the Cmax [1, 3] of the same compound?
The Cmax was 249.4 ± 50.8 ng/mL.

And the T1/2z [1, 3]?
The T1/2z was 1.2 ± 0.6 h.

And the Tmax [1, 3]?
The Tmax was 0.3 ± 0.1 h.

With `COc1ccc(-c2cc(=O)c3c(O)cc(O[C@@H]4O[C@H](CO)[C@@H](O)[C@H](O)[C@H]4O)cc3o2)cc1O` [Diosmetin-7-O-β-D-glucopyranoside, diosmetin-7-O-β-D-glucopyranoside] as the compound, how does the “detection in plasma” value [1, 4] read?
Its value is “only detected in the initial plasma samples”.

Which AUC ([1]; male, rat, plasma, po, 4 g/kg) does the source give for `COc1cc(O)c2c(=O)c(OC)c(-c3ccc(OC)c(OC)c3)oc2c1` [Retusin, retusin] here?
Its AUC is 92.2 ± 33 ng·h/mL.

And the AUC(0-inf) ([1]; male, rat, plasma, po, 4 g/kg)?
The AUC(0-inf) was 92.2 ± 33 ng·h/mL.

What about the Cmax ([1]; male, rat, plasma, po, 4 g/kg) of the same compound?
The Cmax was 33 ± 14.6 ng/mL.

And the Tmax ([1]; male, rat, plasma, po, 4 g/kg)?
Its Tmax is 0.9 ± 0.6 h.

And the half-life ([1]; male, rat, plasma, po, 4 g/kg)?
The half-life was 1.5 ± 0.2 h.

Which “concentration maximum (Cmax)” value [1, 4] does the source give for `Cc1cc(O)c(C(=O)CCC(C)C)c(=O)o1` [Pogostone, pogostone] here?
Its value is 37204.0 ± 10,901.0 ng/mL.

And the “AUC (0-tn)” value [1, 3]?
Its value is 258294.0 ± 93,104.7 μg/L*h.

What about the “AUC (0-∞)” value [1, 3] of the same compound?
The value was 258320.9 ± 93120.6 ng·h/mL.

What about the Cmax [1, 3] of the same compound?
Its Cmax is 37204.0 ± 10,901.0 μg/L.

What about the T1/2z [1, 3] of the same compound?
The T1/2z was 0.8 ± 0.5 h.

What about the Tmax [1, 3] of the same compound?
Its Tmax is 1.9 ± 1.3 h.

And the “area-under-the-curve (AUC) compared with other constituents” value ([1]; rat plasma, PC extract oral)?
The value was “significantly exceeded that of the other constituents”.

With `COc1ccc(-c2cc(=O)c3c(O)cc(O)cc3o2)cc1` [Acacetin, acacetin] as the compound, how does the “detection in plasma” value [1, 4] read?
Its value is “only detected in the initial plasma samples”.
